Laboratory results reported in US6518252B2, “Method of treating aquatic animals with an antimicrobial agent and chelating agent” (priority 2000, dated 2003).

Legend:
[1] = tested on: Ps. aeruginosa; assay: Two-dimensional microtiter checkerboard, MIC and FIC of EDTA in 50 mM Tris and antibiotics; type: cell-based, Pseudomonas aeruginosa; settings: Ps. aeruginosa; alone
Protocol: (§1) Sabath, L. D, Antimicrob. Agents and Chem. 210-217. (1967) and Sparks et al., Vet. Res. Comm. 18, 241-249 (1994), incorporated herein by reference in their entireties. […] Then 0.05 ml of an 18-hour old culture of a test organism, containing 10^6 colony-forming units (CFU) ml, were added to each well. Controls for the culture and media were included in each plate. Plates were covered and incubated at 37° C. for 18-24 hours. […] To generate isobolograms, FICs of the two test solutions were plotted individually on the x-axis and y-axis to determine the effect of combining the two test solutions on bacterial growth. A line that curves away from the zero point and the coordinates indicated antagonism. […] Sabath, L. D, Antimicrob. Agents and Chem. 210-217. (1967), and incorporated herein by reference in their entireties. A numerical score or Fractional Inhibitory Concentration (FIC) index was determined.

[2] = tested on: Staph. aureus; assay: as above; type: cell-based, Staphylococcus aureus; settings: Staph. aureus; alone
Protocol: as §1

[3] = tested on: Ent. faecalis; assay: as above; type: cell-based, Enterococcus faecalis; settings: Ent. faecalis; alone
Protocol: as §1

[4] = tested on: surface ulcers of Koi; assay: Treatment of Koi suffering from surface ulcers (Example 2); type: in vivo, Koi (Cyprinus carpio); settings: antibiotics injected directly into the fish, before the bath treatment
Protocol: All fish were housed in a communal “hospital tank” before treatment and moved to an isolation tank after each treatment. The temperature of the bath was adjusted to that of the hospital tank temperature, 24° C., and adequate aeration was supplied to the treatment tank.

MIC, antibiotic individually administered [1] [µg/mL] | MIC, antibiotic individually administered [2] [µg/mL] | MIC, antibiotic individually administered [3] [µg/mL] | SMILES | Healing of visible ulcers [4]
1 | 120 | 2000 | NCC[C@H](O)C(=O)N[C@@H]1C[C@H](N)[C@@H](O[C@H]2O[C@H](CN)[C@@H](O)[C@H](O)[C@H]2O)[C@H](O)[C@H]1O[C@H]1O[C@H](CO)[C@@H](O)[C@H](N)[C@H]1O [Amikacin, amikacin, reference compound] | failed to heal visible ulcers
490 | 240 | 1 | CC1(C)S[C@@H]2[C@H](NC(=O)[C@H](N)c3ccccc3)C(=O)N2[C@H]1C(=O)O [Ampicillin, ampicillin, reference compound] | 

Continued, molecule first:

SMILES | MIC, antibiotic individually administered [1] [µg/mL] | MIC, antibiotic individually administered [2] [µg/mL] | MIC, antibiotic individually administered [3] [µg/mL] | Healing of visible ulcers [4]
C[C@H]1[C@H](NC(=O)/C(=N\OC(C)(C)C(=O)O)c2csc(N)n2)C(=O)N1S(=O)(=O)O [Azactam] |  |  |  | failed to heal visible ulcers
CCN1CCN(c2cc3c(cc2F)c(=O)c(C(=O)O)cn3C2CC2)CC1 [Baytril] |  |  |  | failed to heal visible ulcers
O=C(N[C@H](CO)[C@H](O)c1ccc([N+](=O)[O-])cc1)C(Cl)Cl [Chloramphenicol, chloramphenicol, reference compound] |  | 390 | 400 | 
